From patent US20140017721A1 (The Research Foundation of State University of New York, priority 2012, published 2014)

Test system: prostate cancer cells (parental PPT2, primary tumor-derived)
Experiment: Cytotoxic drug treatment of parental primary prostate cancer cells under stemness-promoting culture
Format: cell-based, human
Details: 0.1-3 μM concentrations; FIG. 1C
Source text: Initially, the isolated fast adherent cells represented a mixture of a majority of tumor-associated fibrocytes with a minor population of large cancer cells (FIG. 1A).

Compound	enrichment of multinucleated gigantic cells (highly drug resistant type of CSCs)
CC(=O)O[C@@]12CO[C@@H]1C[C@H](O)[C@@]1(C)C(=O)[C@H](OC(=O)C3CC3)C3=C(C)[C@@H](OC(=O)[C@H](O)[C@H](C=C(C)C)NC(=O)OC(C)(C)C)C[C@@](O)([C@@H](OC(=O)c4ccccc4)[C@H]21)C3(C)C [SBT-1214]	significant enrichment and visualization of the multinucleated gigantic cells
CC(=O)O[C@H]1C(=O)[C@@]2(C)[C@H]([C@H](OC(=O)c3ccccc3)[C@]3(O)C[C@H](OC(=O)[C@H](O)[C@@H](NC(=O)c4ccccc4)c4ccccc4)C(C)=C1C3(C)C)[C@]1(OC(C)=O)CO[C@@H]1C[C@@H]2O [Taxol]	significant enrichment and visualization of the multinucleated gigantic cells
